Laboratory results as given in PubChem BioAssay AID2060610 (Molecular Pharmacology Branch, DTP, NCI, 2025).

Test system: 616215-338-R-J1-PDC complex spheroids, viability % test/control
Experiment: Anticancer human tumor 616215-338-R-J1-PDC patient-derived colon adenocarcinoma cell line growth inhibition [CLK]
Conditions: for IC50: curve of first compound; for viability, T/C: stronger effect = lower value
Procedure, shortened: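 Patient-derived tumor cells grown as complex spheroids with HUVEC endothelial cells and mesenchymal stem cells, treated with drug combinations. Concentrations descend in half-log steps from near clinical Cmax, or from 10 microM if Cmax unknown.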

[1] = second compound 0.0316 µM, first compound 0.0316 µM
[2] = second compound 0.0316 µM, first compound 0.1 µM
[3] = second compound 0.0316 µM, first compound 0.316 µM
[4] = second compound 0.0316 µM, first compound 1 µM
[5] = second compound 0.1 µM, first compound 0.0316 µM
[6] = second compound 0.1 µM, first compound 0.1 µM
[7] = second compound 0.1 µM, first compound 0.316 µM
[8] = second compound 0.1 µM, first compound 1 µM
[9] = second compound 0.316 µM, first compound 0.0316 µM
[10] = second compound 0.316 µM, first compound 0.1 µM
[11] = second compound 0.316 µM, first compound 0.316 µM
[12] = second compound 0.316 µM, first compound 1 µM
[13] = second compound 1 µM, first compound 0.0316 µM
[14] = second compound 1 µM, first compound 0.1 µM
[15] = second compound 1 µM, first compound 0.316 µM
[16] = second compound 1 µM, first compound 1 µM
[17] = second compound 3.16 µM, first compound 0.0316 µM
[18] = second compound 3.16 µM, first compound 0.1 µM
[19] = second compound 3.16 µM, first compound 0.316 µM
[20] = second compound 3.16 µM, first compound 1 µM
[21] = second compound 10 µM, first compound 0.0316 µM
[22] = second compound 10 µM, first compound 0.1 µM
[23] = second compound 10 µM, first compound 0.316 µM
[24] = second compound 10 µM, first compound 1 µM
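Also: spheroids exposed to agents for 7 days.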
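For viability, T/C in this document: 100% = DMSO vehicle wells.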

Question: Which results are given for NC(=O)C(=Cn1cnc(-c2cc(C(F)(F)F)cc(C(F)(F)F)c2)n1)c1cncnc1 + CNC(=O)c1ccc(Nc2nc(OC3CCCC3)c3c(-c4ccc5nc(C)oc5c4)c[nH]c3n2)c(OC)c1?
Answer: IC50 (second compound 0.0316 µM): 651 nM; IC50 (second compound 0.1 µM): < 9.49 nM; IC50 (second compound 0.316 µM): < 9.49 nM; IC50 (second compound 1 µM): < 9.49 nM; IC50 (second compound 3.16 µM): < 9.49 nM; IC50 (second compound 10 µM): < 9.49 nM; viability, T/C (second compound 0.0316 µM, first compound 0.00949 µM): 84.9%; viability, T/C (second compound 0.0316 µM, first compound 0.03 µM): 95.5%; viability, T/C (second compound 0.0316 µM, first compound 0.0949 µM): 96%; viability, T/C (second compound 0.0316 µM, first compound 0.3 µM): 77.6%; viability, T/C (second compound 0.0316 µM, first compound 0.949 µM): 36.6%; viability, T/C (second compound 0.0316 µM, first compound 3 µM): 18.4%; viability, T/C (second compound 0.1 µM, first compound 0.00949 µM): 45.4%; viability, T/C (second compound 0.1 µM, first compound 0.03 µM): 48.2%; viability, T/C (second compound 0.1 µM, first compound 0.0949 µM): 34.1%; viability, T/C (second compound 0.1 µM, first compound 0.3 µM): 33.1%; viability, T/C (second compound 0.1 µM, first compound 0.949 µM): 32.5%; viability, T/C (second compound 0.1 µM, first compound 3 µM): 15.8%; viability, T/C (second compound 0.316 µM, first compound 0.00949 µM): 34%; viability, T/C (second compound 0.316 µM, first compound 0.03 µM): 30.4%; viability, T/C (second compound 0.316 µM, first compound 0.0949 µM): 29.7%; viability, T/C (second compound 0.316 µM, first compound 0.3 µM): 25.4%; viability, T/C (second compound 0.316 µM, first compound 0.949 µM): 29.3%; viability, T/C (second compound 0.316 µM, first compound 3 µM): 12.8%; viability, T/C (second compound 1 µM, first compound 0.00949 µM): 34.5%; viability, T/C (second compound 1 µM, first compound 0.03 µM): 33.4%; viability, T/C (second compound 1 µM, first compound 0.0949 µM): 30.5%; viability, T/C (second compound 1 µM, first compound 0.3 µM): 26.9%; viability, T/C (second compound 1 µM, first compound 0.949 µM): 18.3%; viability, T/C (second compound 1 µM, first compound 3 µM): 7.01%; viability, T/C (second compound 3.16 µM, first compound 0.00949 µM): 33.5%; viability, T/C (second compound 3.16 µM, first compound 0.03 µM): 35%; viability, T/C (second compound 3.16 µM, first compound 0.0949 µM): 27.7%; viability, T/C (second compound 3.16 µM, first compound 0.3 µM): 23.3%; viability, T/C (second compound 3.16 µM, first compound 0.949 µM): 13.1%; viability, T/C (second compound 3.16 µM, first compound 3 µM): 4.39%; viability, T/C (second compound 10 µM, first compound 0.00949 µM): 31.3%; viability, T/C (second compound 10 µM, first compound 0.03 µM): 28.5%; viability, T/C (second compound 10 µM, first compound 0.0949 µM): 28.9%; viability, T/C (second compound 10 µM, first compound 0.3 µM): 19.7%; viability, T/C (second compound 10 µM, first compound 0.949 µM): 10.8%; viability, T/C (second compound 10 µM, first compound 3 µM): 2.88%

Question: With CCc1c2c(nc3ccc(O)cc13)-c1cc3c(c(=O)n1C2)COC(=O)[C@]3(O)CC + CN1CCN(c2cc(C(=O)Nc3cc4cc(-c5cnn(C)c5)ccc4cn3)ccn2)CC1 as the molecule, how does the IC50 (second compound 0.0316 µM) read?
Answer: 9.64 nM

Question: What about the IC50 (second compound 0.1 µM) of the same molecule?
Answer: 3.61 nM

Question: What about the IC50 (second compound 0.316 µM) of the same molecule?
Answer: < 3.16 nM

Question: And the IC50 (second compound 1 µM)?
Answer: < 3.16 nM

Question: And the IC50 (second compound 3.16 µM)?
Answer: < 3.16 nM

Question: What about the IC50 (second compound 10 µM) of the same molecule?
Answer: < 3.16 nM

Question: What about the viability, T/C (second compound 0.0316 µM, first compound 0.00316 µM) of the same molecule?
Answer: 98.2%

Question: What about the viability, T/C (second compound 0.0316 µM, first compound 0.01 µM) of the same molecule?
Answer: 42.2%

Question: What about the viability, T/C [1] of the same molecule?
Answer: 32.1%

Question: What about the viability, T/C [2] of the same molecule?
Answer: 18%

Question: And the viability, T/C [3]?
Answer: 12.9%

Question: And the viability, T/C [4]?
Answer: 4.92%

Question: What about the viability, T/C (second compound 0.1 µM, first compound 0.00316 µM) of the same molecule?
Answer: 50.8%

Question: And the viability, T/C (second compound 0.1 µM, first compound 0.01 µM)?
Answer: 40.2%

Question: And the viability, T/C [5]?
Answer: 19.1%

Question: And the viability, T/C [6]?
Answer: 13.1%

Question: And the viability, T/C [7]?
Answer: 14.1%

Question: And the viability, T/C [8]?
Answer: 1.26%

Question: And the viability, T/C (second compound 0.316 µM, first compound 0.00316 µM)?
Answer: 34.2%

Question: And the viability, T/C (second compound 0.316 µM, first compound 0.01 µM)?
Answer: 17.8%

Question: What about the viability, T/C [9] of the same molecule?
Answer: 13.5%

Question: And the viability, T/C [10]?
Answer: 8.84%

Question: What about the viability, T/C [11] of the same molecule?
Answer: 1.45%

Question: What about the viability, T/C [12] of the same molecule?
Answer: 1.92%

Question: What about the viability, T/C (second compound 1 µM, first compound 0.00316 µM) of the same molecule?
Answer: 0.13%

Question: What about the viability, T/C (second compound 1 µM, first compound 0.01 µM) of the same molecule?
Answer: 0.13%

Question: And the viability, T/C [13]?
Answer: 3.09%

Question: And the viability, T/C [14]?
Answer: 0.08%

Question: What about the viability, T/C [15] of the same molecule?
Answer: 0.06%

Question: What about the viability, T/C [16] of the same molecule?
Answer: 1.66%

Question: What about the viability, T/C (second compound 3.16 µM, first compound 0.00316 µM) of the same molecule?
Answer: 0.07%

Question: And the viability, T/C (second compound 3.16 µM, first compound 0.01 µM)?
Answer: 0.12%

Question: What about the viability, T/C [17] of the same molecule?
Answer: 1.53%

Question: What about the viability, T/C [18] of the same molecule?
Answer: 0.09%

Question: And the viability, T/C [19]?
Answer: 3.53%

Question: And the viability, T/C [20]?
Answer: 4.86%

Question: And the viability, T/C (second compound 10 µM, first compound 0.00316 µM)?
Answer: 0.08%

Question: And the viability, T/C (second compound 10 µM, first compound 0.01 µM)?
Answer: 0.13%

Question: What about the viability, T/C [21] of the same molecule?
Answer: 0.18%

Question: What about the viability, T/C [22] of the same molecule?
Answer: 0.13%

Question: And the viability, T/C [23]?
Answer: 3.18%

Question: What about the viability, T/C [24] of the same molecule?
Answer: 1.61%

Question: With CCCS(=O)(=O)Nc1ccc(F)c(C(=O)c2c[nH]c3ncc(-c4ccc(Cl)cc4)cc23)c1F + CN1CCN(c2cc(C(=O)Nc3cc4cc(-c5cnn(C)c5)ccc4cn3)ccn2)CC1 as the molecule, how does the IC50 (second compound 0.0316 µM) read?
Answer: 1510 nM

Question: And the IC50 (second compound 0.1 µM)?
Answer: 1690 nM

Question: What about the IC50 (second compound 0.316 µM) of the same molecule?
Answer: < 31.6 nM

Question: And the IC50 (second compound 1 µM)?
Answer: < 31.6 nM

Question: What about the IC50 (second compound 3.16 µM) of the same molecule?
Answer: < 31.6 nM

Question: And the IC50 (second compound 10 µM)?
Answer: < 31.6 nM

Question: And the viability, T/C [1]?
Answer: 21.5%

Question: What about the viability, T/C [2] of the same molecule?
Answer: 34.8%

Question: And the viability, T/C [3]?
Answer: 99.9%

Question: And the viability, T/C [4]?
Answer: 98.2%

Question: And the viability, T/C (second compound 0.0316 µM, first compound 3.16 µM)?
Answer: 25.5%

Question: What about the viability, T/C (second compound 0.0316 µM, first compound 10 µM) of the same molecule?
Answer: 0.01%

Question: What about the viability, T/C [5] of the same molecule?
Answer: 24.7%

Question: And the viability, T/C [6]?
Answer: 36.4%

Question: And the viability, T/C [7]?
Answer: 105%

Question: What about the viability, T/C [8] of the same molecule?
Answer: 105%

Question: And the viability, T/C (second compound 0.1 µM, first compound 3.16 µM)?
Answer: 28.9%

Question: What about the viability, T/C (second compound 0.1 µM, first compound 10 µM) of the same molecule?
Answer: 0.01%

Question: What about the viability, T/C [9] of the same molecule?
Answer: 10.4%

Question: What about the viability, T/C [10] of the same molecule?
Answer: 12.8%

Question: And the viability, T/C [11]?
Answer: 38.1%

Question: And the viability, T/C [12]?
Answer: 29.9%

Question: What about the viability, T/C (second compound 0.316 µM, first compound 3.16 µM) of the same molecule?
Answer: 21%

Question: What about the viability, T/C (second compound 0.316 µM, first compound 10 µM) of the same molecule?
Answer: 0%

Question: And the viability, T/C [13]?
Answer: 0.01%

Question: What about the viability, T/C [14] of the same molecule?
Answer: 0.08%

Question: And the viability, T/C [15]?
Answer: 0.17%

Question: And the viability, T/C [16]?
Answer: 1.99%

Question: What about the viability, T/C (second compound 1 µM, first compound 3.16 µM) of the same molecule?
Answer: 0.6%

Question: And the viability, T/C (second compound 1 µM, first compound 10 µM)?
Answer: 0.01%

Question: And the viability, T/C [17]?
Answer: 0.01%

Question: What about the viability, T/C [18] of the same molecule?
Answer: 0.06%

Question: And the viability, T/C [19]?
Answer: 0.14%

Question: What about the viability, T/C [20] of the same molecule?
Answer: 0.13%

Question: And the viability, T/C (second compound 3.16 µM, first compound 3.16 µM)?
Answer: 0.08%

Question: And the viability, T/C (second compound 3.16 µM, first compound 10 µM)?
Answer: 0%

Question: And the viability, T/C [21]?
Answer: 0.03%

Question: And the viability, T/C [22]?
Answer: 0.07%

Question: And the viability, T/C [23]?
Answer: 0.17%

Question: What about the viability, T/C [24] of the same molecule?
Answer: 0.19%

Question: What about the viability, T/C (second compound 10 µM, first compound 3.16 µM) of the same molecule?
Answer: 0.25%

Question: What about the viability, T/C (second compound 10 µM, first compound 10 µM) of the same molecule?
Answer: 0%
